Results published in publication PMC9144829, “Histone Deacetylase Inhibitory Activity and Antiproliferative Potential of New [6]-Shogaol Derivatives” (Molecules, 2022).
Read-outs that look alike come from different tables or passages of the source. Each block holds one compound with its values, some of them ahead of it.

Key:
[1] = tested on: HDAC enzymes (HeLa nuclear extract, mixed-HDAC isoforms); experiment: Fluor-de-Lys HDAC activity assay kit, HeLa nuclear extract as source of HDAC enzymes; assay type: biochemical, human; details: compounds at 100 µM
Method: The in vitro HDAC inhibitions of the obtained compounds were carried out with the assay kit containing mixed-HDAC isoforms. […] Therefore, the results were not fully related. However, compounds with good binding affinities should have the potential to be specific HDAC inhibitors for each isoform.
The semi-synthetic derivatives were evaluated for their ability to inhibit HDAC enzymes. Inhibition of HDAC activity in vitro was assessed using the Fluor-de-Lys HDAC activity assay kit (Biomol, Enzo Life Sciences International, Inc., Farmingdale, NY, USA). The HeLa nuclear extract provided with the kit was used as a source of HDAC enzymes for the in vitro study. TSA was used as the positive control. The HeLa nuclear extract, substrate, buffer and inhibitors were incubated. Deacetylation of the substrate was performed next by adding a developer to generate a fluorophore. The spectra Max Gemini XPS microplate spectrofluorometer (Molecular Devices, San Jose, CA, USA) was used to measure fluorescence signal with excitation at 360 nm and emission at 460 nm. A decrease in fluorescence signal indicated an inhibition of HDAC activity. Trichostatin A (TSA) was used as a positive control. All experiments were carried out in triplicate.

[2] = tested on: human colon cancer (HCT116) cells; experiment: MTT assay, HCT116 cells; assay type: cell-based; details: Homo sapiens, HCT-116, read-out: IC50 Values (Mean ± SD; n = 3)
Method: (§1) The MTT reduction assay was performed with non-cancer (Vero), human cervical cancer (HeLa), human colon cancer (HCT116), human breast adenocarcinoma cancer (MCF-7), and cholangiocarcinoma (H-69 […], KKU-100 and KKU-M213B) cell lines according to the previously described method. Briefly, cells were seeded in 96-well plates. The next day, cells were exposed to the selected compounds at various concentrations and incubated for 24, 48 and 72 h. After incubation, the culture medium was exchanged with 110 µL of MTT (0.5 mg/mL in PBS medium) and further incubated for 2 h. The amount of MTT formazan product was determined after dissolving in DMSO by measuring its absorbance with a microplate reader (Bio-Rad Laboratories, Hercules, CA, USA) at a test wavelength of 550 nm and a reference wavelength of 655 nm. The cell viability was expressed as a percentage of the viable cells of control culture conditions, and the IC50 values of each group were calculated.

[3] = tested on: Vero cells; experiment: MTT assay, non-cancer Vero cells; assay type: cell-based; details: Chlorocebus sabaeus, read-out: IC50 Values (Mean ± SD; n = 3)
Method: as §1

[4] = tested on: H-69 cells; experiment: MTT assay, H-69 cells; assay type: cell-based; details: Homo sapiens, NCI-H69, read-out: IC50 Values (Mean ± SD; n = 3)
Method: as §1

[5] = tested on: cholangiocarcinoma KKU-100 cells; experiment: MTT assay, KKU-100 cells; assay type: cell-based, human; details: Homo sapiens, KKU100, read-out: IC50 Values (Mean ± SD; n = 3)
Method: as §1

[6] = tested on: human cervical cancer (HeLa) cells; experiment: MTT assay, HeLa cells; assay type: cell-based; details: for IC50: Homo sapiens, read-out: IC50 Values (Mean ± SD; n = 3), HeLa cells
Method: as §1

[7] = tested on: cholangiocarcinoma KKU-M213B cells; experiment: MTT assay, KKU-M213B cells; assay type: cell-based, human; details: Homo sapiens, read-out: IC50 Values (Mean ± SD; n = 3)
Method: as §1

[8] = tested on: human breast adenocarcinoma cancer (MCF-7) cells; experiment: MTT assay, MCF-7 cells; assay type: cell-based; details: Homo sapiens, MCF7, read-out: IC50 Values (Mean ± SD; n = 3)
Method: as §1

Compound: CCCCCC1CC(CCc2ccc(O)c(OC)c2)=NN1c1ccccc1F (stereo not drawn) [Compound 5e, 4-(2-(1-(2-fluorophenyl)-5-pentyl-4,5-dihydro-1H-pyrazol-3-yl)ethyl)-2-methoxyphenol]
%HDAC Inhibition [1]: 54%

Compound: CCCCCC1CC(CCc2ccc(O)c(OC)c2)=NN1c1ccc([N+](=O)[O-])cc1 (stereo not drawn) [Compound 5j, 2-methoxy-4-(2-(1-(4-nitrophenyl)-5-pentyl-4,5-dihydro-1H-pyrazol-3-yl)ethyl)phe nol]
IC50 ([2]; 24 h): 42.7 ± 2.23 µM
IC50 ([2]; 48 h): 10.2 ± 0.43 µM
IC50 ([2]; 72 h): 9.65 ± 0.17 µM
IC50 ([3]; 24 h): 41.6 ± 2.99 µM
IC50 ([3]; 48 h): 32.2 ± 1.31 µM
IC50 ([3]; 72 h): 26.1 ± 0.47 µM
IC50 ([4]; 24 h): 44.1 ± 0.89 µM
IC50 ([4]; 48 h): 34.6 ± 0.41 µM
IC50 ([4]; 72 h): 26.4 ± 0.43 µM
IC50 ([5]; 24 h): 27.2 ± 0.59 µM
IC50 ([5]; 48 h): 22.4 ± 0.65 µM
IC50 ([5]; 72 h): 17.45 ± 0.14 µM
IC50 ([6]; 24 h): 26.8 ± 0.62 µM
IC50 ([6]; 48 h): 11.6 ± 0.6 µM
IC50 ([6]; 72 h): 8.09 ± 0.03 µM
IC50 ([7]; 24 h): 23.9 ± 0.85 µM
IC50 ([7]; 48 h): 19.3 ± 0.9 µM
IC50 ([7]; 72 h): 13.8 ± 0.16 µM
%HDAC Inhibition [1]: 85%
IC50 ([8]; 24 h): 27.9 ± 0.86 µM
IC50 ([8]; 48 h): 13.8 ± 0.56 µM
IC50 ([8]; 72 h): 11.6 ± 0.44 µM

Compound: CCCCC/C=C/C(CCc1ccc(O)c(OC)c1)=N\N [Compound 4a, 4-((3Z,4E)-3-Hydrazonodec-4-en-1-yl)-2-methoxyphenol]
%HDAC Inhibition [1]: 73%

Compound: 10-(4-Hydroxy-3-methoxyphenyl)-6-((2-hydroxyphenyl)amino)decan-8-one [Compound 6b]
%HDAC Inhibition [1]: 64%

Compound: CCCCC/C=C/C(CCc1ccc(O)c(OC)c1)=N\Nc1ccccn1 [Compound 4c, 2-Methoxy-4-((3Z,4E)-3-(2-(pyridin-2-yl)hydrazono)dec-4-en-1-yl)phenol]
IC50 ([2]; 24 h): 20.2 ± 0.46 µM
IC50 ([2]; 48 h): 18.4 ± 0.32 µM
IC50 ([2]; 72 h): 17.2 ± 0.23 µM
IC50 ([3]; 24 h): 69.5 ± 3.94 µM
IC50 ([3]; 48 h): 49.31 ± 0.18 µM
IC50 ([3]; 72 h): 45.2 ± 0.49 µM
IC50 ([4]; 24 h): 40 ± 1.57 µM
IC50 ([4]; 48 h): 30.6 ± 0.82 µM
IC50 ([4]; 72 h): 28.7 ± 0.36 µM
IC50 ([5]; 24 h): 36.8 ± 0.89 µM
IC50 ([5]; 48 h): 29.7 ± 0.96 µM
IC50 ([5]; 72 h): 19.2 ± 0.41 µM
IC50 ([6]; 24 h): 49.3 ± 1.27 µM
IC50 ([6]; 48 h): 33.4 ± 1.09 µM
IC50 ([6]; 72 h): 29.3 ± 0.88 µM
IC50 ([7]; 24 h): 39 ± 0.27 µM
IC50 ([7]; 48 h): 28.98 ± 0.26 µM
IC50 ([7]; 72 h): 25.9 ± 0.71 µM
%HDAC Inhibition [1]: 80%
IC50 ([8]; 24 h): 46.4 ± 1.3 µM
IC50 ([8]; 48 h): 39.4 ± 0.68 µM
IC50 ([8]; 72 h): 27.1 ± 0.47 µM

Compound: CC(/C=C/C(=O)NO)=C\[C@@H](C)C(=O)c1ccc(N(C)C)cc1 [TSA, Trichostatin A, reference compound]
%HDAC Inhibition [1]: 92%

Compound: CCCCCC1CC(CCc2ccc(O)c(OC)c2)=NN1c1ccccc1 (stereo not drawn) [Compound 5a, 2-methoxy-4-(2-(5-pentyl-1-phenyl-4,5-dihydro-1H-pyrazol-3-yl)ethyl)phenol]
%HDAC Inhibition [1]: 74%

The next lines start with results.

%HDAC Inhibition [1]: 67%
Compound: CCCCCC1CC(CCc2ccc(O)c(OC)c2)=NN1c1ccc(OC)cc1 (stereo not drawn) [Compound 5d, 2-methoxy-4-(2-(1-(4-methoxyphenyl)-5-pentyl-4,5-dihydro-1H-pyrazol-3-yl)ethyl) phenol]

IC50 ([2]; 24 h): 94.4 ± 2.7 µM
IC50 ([2]; 48 h): 39.2 ± 1.06 µM
IC50 ([2]; 72 h): 34.5 ± 0.66 µM
IC50 ([6]; 24 h): 83.8 ± 1.83 µM
IC50 ([6]; 48 h): 56.8 ± 1.24 µM
IC50 ([6]; 72 h): 23.1 ± 0.76 µM
%HDAC Inhibition [1]: 83%
IC50 ([8]; 24 h): 56.6 ± 3.21 µM
IC50 ([8]; 48 h): 50.5 ± 1.64 µM
IC50 ([8]; 72 h): 31.8 ± 0.88 µM
Compound: CCCCCC1CC(CCc2ccc(O)c(OC)c2)=NN1c1ccc(C(=O)O)cc1 (stereo not drawn) [Compound 5k, 4-(3-(4-hydroxy-3-methoxyphenethyl)-5-pentyl-4,5-dihydro-1H-pyrazol-1-yl)benzo ic acid]
IC50 ([3]; 24 h): 143 ± 2.15 µM
IC50 ([3]; 48 h): 128 ± 1.73 µM
IC50 ([3]; 72 h): 116.7 ± 1.13 µM
IC50 ([4]; 24 h): 68.7 ± 1.15 µM
IC50 ([4]; 48 h): 52.7 ± 1.73 µM
IC50 ([4]; 72 h): 47.6 ± 0.73 µM
IC50 ([5]; 24 h): 68.1 ± 1.98 µM
IC50 ([5]; 48 h): 38.9 ± 0.65 µM
IC50 ([5]; 72 h): 26.99 ± 0.08 µM
selectivity towards HeLa cells than non-cancer cells ([6]; HeLa versus non-cancer cells): about 5 fold
IC50 ([7]; 24 h): 63.2 ± 2.52 µM
IC50 ([7]; 48 h): 35.7 ± 1.4 µM
IC50 ([7]; 72 h): 29.1 ± 1.17 µM

%HDAC Inhibition [1]: 54%
Compound: 10-(4-Hydroxy-3-methoxyphenyl)-6-((2-mercaptophenyl)amino)decan-8-one [Compound 6a]

%HDAC Inhibition [1]: 77%
Compound: CCCCCC1CC(CCc2ccc(O)c(OC)c2)=NN1c1cccc([N+](=O)[O-])c1 (stereo not drawn) [Compound 5i, 2-methoxy-4-(2-(1-(3-nitrophenyl)-5-pentyl-4,5-dihydro-1H-pyrazol-3-yl)ethyl)phe nol]
